The subject of one series is HEK-293T. Nature of the series: Cytotoxicity against HEK293T cells after 48 hrs by MTT assay. Format: cell-based. Particulars: human. For orientation: Tetrazolium dyes change colour on reduction, which living cells bring about.
The nature of series [1]: Protective index, ratio of MNTD50 for HEK293T cells to MIC for Mycobacterium tuberculosis H37Rv.
The test system of series [2] is Mycobacterium tuberculosis. The series can be described thus: Antitubercular activity against Mycobacterium tuberculosis H37Rv measured after 1 week by microplate alamar blue assay. The class given is functional. Particulars: 168 h. On the technique in general: Resazurin is reduced to fluorescent resorufin, in cell work by metabolically active cells.

The text below walks through data of ChEMBL document CHEMBL4330141, “Synthesis and evaluation of novel substituted 1,2,3-triazolyldihydroquinolines as promising antitubercular agents” (Bioorg Med Chem Lett, 2019).

SMILES strings stand for the structures. ≈ marks a conversion by molar mass, not a printed value.

As usually defined, the MIC is the lowest concentration found to suppress growth.

Compound `FC(F)(F)c1ccc(Cn2cc(C3=C(Cl)c4ccc(-c5cccs5)nc4CC3)nn2)cc1` came in with an MNTD50 in the series with HEK-293T of 86 µg/mL. Besides, the Ratio in series [1] came out at 13.76. Moreover, the minimum inhibitory concentration (MIC) in series [2] came out at 6.25 µg/mL (≈ 13.2 µM). `O=[N+]([O-])c1ccc(Cn2cc(C3=C(Cl)c4ccc(-c5cccs5)nc4CC3)nn2)cc1` yielded an MNTD50 in the series on HEK-293T of 69 µg/mL. Moreover, in series [1], the Ratio turned out to be 5.52. In series [2], 12.5 µg/mL (≈ 27.8 µM) was the least that counted as inhibitory (MIC). `COc1cc(Cn2cc(C3=C(Cl)c4ccc(-c5cccs5)nc4CC3)nn2)cc(OC)c1OC` yielded an MNTD50 in the series with HEK-293T of 74 µg/mL. For the same compound, in series [1], the Ratio was determined as 5.92. Moreover, inhibition of growth in series [2] (MIC) required 12.5 µg/mL (≈ 25.3 µM). In the case of `ClC1=C(c2cn(Cc3ccc(Br)cc3)nn2)CCc2nc(-c3cccs3)ccc21`, the MNTD50 with HEK-293T was determined as 88 µg/mL. The Ratio in series [1] came out at 28.02. This compound came in with an MIC in series [2] of 3.12 µg/mL (≈ 6.45 µM).

As for `CCc1ccc(Cn2cc(C3=C(Cl)c4ccc(-c5cccs5)nc4CC3)nn2)cc1`, 25 µg/mL (≈ 57.7 µM) was the least that counted as inhibitory in series [2] (MIC).

Take `COc1cccc(Cn2cc(C3=C(Cl)c4ccc(-c5cccs5)nc4CC3)nn2)c1`: in the series with HEK-293T, the MNTD50 was determined as 98 µg/mL. In series [1], the Ratio amounted to 31.4. The minimal inhibitory concentration (MIC) in series [2] is 3.12 µg/mL (≈ 7.17 µM). Compound `ClC1=C(c2cn(Cc3ccc(Cl)c(Cl)c3)nn2)CCc2nc(-c3cccs3)ccc21` came in with an MIC in series [2] of 25 µg/mL (≈ 52.8 µM). `N#CC1=C(Cl)c2ccc(-c3cccs3)nc2CC1`: 25 µg/mL (≈ 91.7 µM) was the least that counted as inhibitory in series [2] (MIC). Same read-out and setting: with `Cc1ccc(Cn2cc(C3=C(Cl)c4ccc(-c5cccs5)nc4CC3)nn2)cc1` the figure was 25 µg/mL (≈ 59.7 µM); with `COc1ccc(Cn2cc(C3=C(Cl)c4ccc(-c5cccs5)nc4CC3)nn2)cc1`, 25 µg/mL (≈ 57.5 µM).

In series [2], `Fc1ccc(Cn2cc(C3=C(Cl)c4ccc(-c5cccs5)nc4CC3)nn2)cc1` yielded an MIC of 25 µg/mL (≈ 59.1 µM).

The compound `Cc1cc(C)c(Cn2cc(C3=C(Cl)c4ccc(-c5cccs5)nc4CC3)nn2)c(C)c1` came in with an MIC in series [2] of 25 µg/mL (≈ 55.9 µM). The same measure, in the same setting: with `ClC1=C(c2cn(Cc3cccc(Br)c3)nn2)CCc2nc(-c3cccs3)ccc21` the figure was 25 µg/mL (≈ 51.7 µM). In the series with HEK-293T, `ClC1=C(c2cn(Cc3ccccc3)nn2)CCc2nc(-c3cccs3)ccc21` displayed an MNTD50 of 112 µg/mL. Besides, in series [1], the Ratio is given as 71.7. In addition, the MIC in series [2] was found to be 1.56 µg/mL (≈ 3.85 µM). On to `Fc1ccc(Cn2cc(C3=C(Cl)c4ccc(-c5cccs5)nc4CC3)nn2)c(Cl)c1`, for which, in series [2], the MIC was determined as 25 µg/mL (≈ 54.7 µM). Regarding `Fc1cc(Br)ccc1Cn1cc(C2=C(Cl)c3ccc(-c4cccs4)nc3CC2)nn1`, the MIC in series [2] turned out to be 25 µg/mL (≈ 49.8 µM). In series [2], `O=C(O)c1cn(C2CC2)c2cc(N3CCNCC3)c(F)cc2c1=O` [CIPROFLOXACIN] gave an MIC of 1.56 µg/mL (≈ 4.71 µM). Same read-out and setting: in the case of `CC[C@@H](CO)NCCN[C@@H](CC)CO` [ETHAMBUTOL] it was 3.13 µg/mL (≈ 15.3 µM). Compound `NNC(=O)c1ccncc1` [ISONIAZID] yielded an MNTD50 in the series with HEK-293T of 32 µg/mL. The compound also showed an MIC in series [2] of 0.1 µg/mL (≈ 0.729 µM).

For `CO[C@H]1/C=C/O[C@@]2(C)Oc3c(C)c(O)c4c(O)c(c(/C=N/N5CCN(C)CC5)c(O)c4c3C2=O)NC(=O)/C(C)=C\C=C\[C@H](C)[C@H](O)[C@@H](C)[C@@H](O)[C@@H](C)[C@H](OC(C)=O)[C@@H]1C` [RIFAMPIN], the MIC in series [2] was determined as 0.2 µg/mL (≈ 0.243 µM).
